According to patent publication US10787442B2, “Modulators of indoleamine 2,3-dioxygenase” (GLAXOSMITHKLINE INTELLECTUAL PROPERTY DEVELOPMENT LIMITED, priority 2016, dated 2020):
Like-named read-outs stand apart in the source and are kept apart here.

How the values were obtained:
[1] = biological target: T1, ePL tagged IDO1 (Homo sapiens, UniProt P14902); assay: CETSA (Cellular Thermal Shifting assay); type: binding; settings: Hela cells, 3 hours at 37° C., heated at 53° C. for 3 min
T1 construct: expressed in transfected cells; host or cells: HeLa cells transduced with BacMam virus
Description: Cellular Thermal Shifting assays were used to directly monitor the ligand binding to target proteins in cells. Hela cells were transduced with BacMam virus expressing ePL tagged IDO1 overnight. The cells were then plated over the compounds for 3 hours at 37° C. in cell culture medium containing 1% FBS. The plates were then sealed and heated at 53° C. for 3 min. InCell Hunter reagents were added and luminescence was read in 90 min.

[2] = biological target: indoleamine 2, 3-dioxygenase (IDO1) (Homo sapiens, UniProt P14902); assay: IDO1 HeLa RapidFire MS Assay (kynurenine by mass spectrometry); type: cell-based; settings: HeLa cells stimulated with IFN-γ, 2 days; recorded as pIC50; read-out: IDO1 HeLa PXC50 (converted)
Description: IDO1 HeLa RapidFire MS Assay
(§1) Compounds of the present invention were tested via high-throughput cellular assays utilizing detection of kynurenine via mass spectrometry and cytotoxicity as end-points. […] Compounds with IDO1 inhibitory properties decreased the amount of kynurenine produced by the cells via the tryptophan catabolic pathway. Cellular toxicity due to the effect of compound treatment was measured using CellTiter-Glo® reagent (CTG) (Promega Corporation, Madison, Wis.), which is based on luminescent detection of ATP, an indicator of metabolically active cells.
(§2) In preparation for the assays, test compounds were serially diluted 3-fold in DMSO from a typical top concentration of 1 mM or 5 mM and plated at 0.5 μL in 384-well, polystyrene, clear bottom, tissue culture treated plates with lids (Greiner Bio-One, Kremsmünster, Austria) to generate 11-point dose response curves. Low control wells (0% kynurenine or 100% cytotoxicity) contained either 0.5 μL of DMSO in the presence of unstimulated (−IFN-γ) HeLa cells for the mass spectrometry assay or 0.5 μL of DMSO in the absence of cells for the cytotoxicity assay, and high control wells (100% kynurenine or 0% cytotoxicity) contained 0.5 μL of DMSO in the presence of stimulated (+IFN-γ) HeLa cells for both the mass spectrometry and cytotoxicity assays.
(§3) Frozen stocks of HeLa cells were washed and recovered in DMEM high glucose medium with HEPES (Thermo Fisher Scientific, Inc., Waltham, Mass.) supplemented with 10% v/v certified fetal bovine serum (FBS) (Thermo Fisher Scientific, Inc., Waltham, Mass.), and 1× penicillin-streptomycin antibiotic solution (Thermo Fisher Scientific, Inc., Waltham, Mass.). The cells were diluted to 100,000 cells/mL in the supplemented DMEM medium. 50 μL of either the cell suspension, for the mass spectrometry assay, or medium alone, for the cytotoxicity assay, were added to the low control wells, on the previously prepared 384-well compound plates, resulting in 5,000 cells/well or 0 cells/well respectively. IFN-γ was added to the remaining cell suspension at a final concentration of 10 nM, and 50 μL of the stimulated cells were added to all remaining wells on the 384-well compound plates. The plates, with lids, were then placed in a 37° C., 5% CO2 humidified incubator for 2 days.
(§4) Following incubation, the 384-well plates were removed from the incubator and allowed to equilibrate to room temperature for 30 minutes. For the cytotoxicity assay, CellTiter-Glo® was prepared according to the manufacturer's instructions, and 10 μL were added to each plate well. After a twenty minute incubation at room temperature, luminescence was read on an EnVision® Multilabel Reader (PerkinElmer Inc., Waltham, Mass.). For the mass spectrometry assay, 10 μL of supernatant from each well of the compound-treated plates were added to 40 μL of acetonitrile, containing 10 μM of an internal standard for normalization, in 384-well, polypropylene, V-bottom plates (Greiner Bio-One, Kremsmünster, Austria) to extract the organic analytes. Following centrifugation at 2000 rpm for 10 minutes, 10 μL from each well of the acetonitrile extraction plates were added to 90 μL of sterile, distilled H2O in 384-well, polypropylene, V-bottom plates for analysis of kynurenine and the internal standard on the RapidFire 300 (Agilent Technologies, Santa Clara, Calif.) and 4000 QTRAP MS (SCIEX, Framingham, Mass.). MS data were integrated using Agilent Technologies' RapidFire Integrator software, and data were normalized for analysis as a ratio of kynurenine to the internal standard.

[3] = tested on: human epithelial HeLa cells; assay: HeLa cytotoxicity assay (CellTiter-Glo); type: cell-based; settings: cytotoxicity in stimulated HeLa cells, recorded as pCC50
Description: as §1, §2, §3, §4

[4] = tested on: human peripheral blood mononuclear cells (PBMC); assay: PBMC cytotoxicity assay (CellTiter-Glo); type: cell-based; settings: cytotoxicity in stimulated PBMC, recorded as pCC50
[5] = tested on: PAN02 pancreatic cells; settings: cited from earlier work
[6] = first value, read-out: pXC50_1 (converted)
[7] = second value, read-out: pXC50_2 (converted)

Chain of indoleamine 2, 3-dioxygenase (IDO1) (P14902 whole entry): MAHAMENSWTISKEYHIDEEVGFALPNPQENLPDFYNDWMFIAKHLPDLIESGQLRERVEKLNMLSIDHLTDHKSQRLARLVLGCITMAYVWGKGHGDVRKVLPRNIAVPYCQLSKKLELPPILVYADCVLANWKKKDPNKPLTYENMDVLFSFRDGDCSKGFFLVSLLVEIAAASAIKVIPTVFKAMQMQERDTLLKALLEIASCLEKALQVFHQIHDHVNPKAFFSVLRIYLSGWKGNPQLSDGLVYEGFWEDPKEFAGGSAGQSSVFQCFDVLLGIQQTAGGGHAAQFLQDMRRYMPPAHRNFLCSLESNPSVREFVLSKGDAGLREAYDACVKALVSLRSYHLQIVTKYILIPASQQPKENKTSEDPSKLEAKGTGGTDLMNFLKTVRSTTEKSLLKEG
T1 sequence (P14902 whole entry): as above

Row | SMILES | EC50 [1, 6] | EC50 [1, 7] | IC50 [2] | HELA_IDO1_TOX_PXC50 [3] | PBMC_TOX PXC50 [4] | effect against the same tumor ([5]; immune-deficient mice) | inhibition of tumor growth ([5]; immunocompetent mice, orally dosed)
1 | CC(C)CN(c1ncc([C@H](C)CC(=O)O)cc1Nc1nc(C(F)(F)F)ns1)C1CCOCC1 [Example 3, (R)-3-(6-(isobutyl(tetrahydro-2H-pyran-4-yl)amino)-5-((3-(trifluoromethyl)-1,2,4-thiadiazol-5-yl)amino)pyridin-3-yl)butanoic acid] | 162 nM | 186 nM | 10 nM | <5 | <5.0 |  | 
2 | CC(C)CN(c1ncc(C(C)CC(=O)O)cc1Nc1nc(Cl)ns1)C1CCOCC1 (stereo not shown) [Example 34, 3-{5-[(3-chloro-1,2,4-thiadiazol-5-yl)amino]-6-[(2-methylpropyl)(oxan-4-yl)amino]pyridin-3-yl}butanoic acid] |  |  | 316 nM | <5 | <5.0 |  | 
3 | CC(C)CN(c1ncc(C(C)CC(=O)O)cc1Nc1ccc(Cl)cn1)C1CCOCC1 (stereo not shown) [Example 35, 3-{5-[(5-chloropyridin-2-yl)amino]-6-[(2-methylpropyl)(oxan-4-yl)amino]pyridin-3-yl}butanoic acid] |  |  | 7.94 nM | <5 | <5.0 |  | 
4 | CC(C)CN(CC(C)C)c1ncc([C@H](C)CC(=O)O)cc1Nc1nc(C(F)(F)F)ns1 [Example 40, (3R)-3-{6-[bis(2-methylpropyl)amino]-5-{[3-(trifluoromethyl)-1,2,4-thiadiazol-5-yl]amino}pyridin-3-yl}butanoic acid] |  |  | 7.94 nM | <5 | <5.6 |  | 
5 | CC(C)CN(c1ncc([C@H](C)CC(=O)O)cc1Nc1ccc(C#N)cn1)C1CCOCC1 [Example 57, (3R)-3-{5-[(5-cyanopyridin-2-yl)amino]-6-[(2-methylpropyl)(oxan-4-yl)amino]pyridin-3-yl}butanoic acid] | 5010 nM | 3090 nM |  |  | <5.0 |  | 
6 | C[C@H](CC(=O)O)c1cnc(N(CCCCCN)C2CCOCC2)c(Nc2ccc(Cl)cn2)c1 [Example 83, (3R)-3-{6-[(5-aminopentyl)(oxan-4-yl)amino]-5-[(5-chloropyridin-2-yl)amino]pyridin-3-yl}butanoic acid] |  |  | 10 nM | <5 | <5.0 |  | 
7 | C[C@H](CC(=O)O)c1cnc(N(CCCCCNC(=O)OC2CC/C=C/CCC2)C2CCOCC2)c(Nc2ccc(Cl)cn2)c1 (stereo partly drawn) [Example 84, (3R)-3-{5-[(5-chloropyridin-2-yl)amino]-6-{[5-({[(4E)-cyclooct-4-en-1-yloxy]carbonyl}amino)pentyl](oxan-4-yl)amino}pyridin-3-yl}butanoic acid] |  |  | 10 nM | <5 | <5.0 |  | 
8 | NS(=O)(=O)NCCNc1nonc1C(=NO)Nc1ccc(F)c(Br)c1 [INCB204360] |  |  |  |  |  | without effect | significant dose-dependent inhibition of tumor growth
